Results taken from ChEMBL document CHEMBL6083241, “The heterodimer of 2-amino-1,8-naphthyridine and 3-aminoisoquinoline binds to the CTG/CTG triad via hydrogen bonding” (Bioorg Med Chem Lett, 2024).
Each block holds one compound with its values, some of them ahead of it. Activity calls are given as the source filed them. The calls are words filed in the database; no cut-off is given here.

What was measured:
Type in all cases: nucleic-acid assay
CTG repeat expansion [1] = test: Binding affinity to dsDNA CTG/CTG triad (unknown origin) assessed as melting temperature at 50 uM […]
CTG repeat expansion [2] = test: Binding affinity to dsDNA CTG/CTG triad (unknown origin) assessed as change in melting temperature by […]
CAG repeat expansion [3] = test: Binding affinity to dsDNA CAG/CAG motif (unknown origin) assessed as melting temperature at 50 uM […] (reference value: 21.8 +/-0.2 degreeC)
CGG repeat expansion [4] = test: Binding affinity to dsDNA CGG/CGG motif (unknown origin) assessed as melting temperature at 50 uM […] (reference value: 28.2 +/-0.3 degreeC)
CCG repeat expansion [5] = test: Binding affinity to dsDNA CCG/CCG motif (unknown origin) assessed as melting temperature at 50 uM […] (reference value: 21.6 +/-0.2 degreeC)
CCG/CGG motif [6] = test: Binding affinity to dsDNA CCG/CGG motif (unknown origin) assessed as melting temperature at 50 uM […] (reference value: 44.8 +/-0.5 degreeC)
CAG/CTG motif [7] = test: Binding affinity to dsDNA CAG/CTG motif (unknown origin) assessed as melting temperature at 50 uM […] (reference value: 38.5 +/-0.4 degreeC)
TTT/ATA motif [8] = test: Binding affinity to dsDNA TTT/ATA motif (unknown origin) assessed as melting temperature at 50 uM […] (reference value: 16.6 +/-0.2 degreeC)
CAG repeat expansion [9] = test: Binding affinity to dsDNA CAG/CAG motif (unknown origin) assessed as change in melting temperature at 50 uM […]
CGG repeat expansion [10] = test: Binding affinity to dsDNA CGG/CGG motif (unknown origin) assessed as change in melting temperature at 50 uM […]
CCG repeat expansion [11] = test: Binding affinity to dsDNA CCG/CCG motif (unknown origin) assessed as change in melting temperature at 50 uM […]
CCG/CGG motif [12] = test: Binding affinity to dsDNA CCG/CGG motif (unknown origin) assessed as change in melting temperature at 50 uM […]
CAG/CTG motif [13] = test: Binding affinity to dsDNA CAG/CTG motif (unknown origin) assessed as change in melting temperature at 50 uM […]
TTT/ATA motif [14] = test: Binding affinity to dsDNA TTT/ATA motif (unknown origin) assessed as change in melting temperature at 50 uM […]
CTG repeat expansion [15] = test: Binding affinity to dsDNA CTG/CTG triad (unknown origin) assessed as increase in band intensity at 50 uM by circular dichroism analysis
CAG repeat expansion [16] = test: Binding affinity to dsDNA CAG/CAG triad (unknown origin) assessed as increase in band intensity at 50 uM by circular dichroism analysis
CGG repeat expansion [17] = test: Binding affinity to dsDNA CGG/CGG triad (unknown origin) assessed as increase in band intensity at 50 uM by circular dichroism analysis
CCG repeat expansion [18] = test: Binding affinity to dsDNA CCG/CCG triad (unknown origin) assessed as increase in band intensity at 50 uM by circular dichroism analysis
CTG repeat expansion [19] = test: Binding affinity to dsDNA CTG/CTG triad (unknown origin) assessed as increase in band intensity by circular dichroism analysis; details: dose 20-60 µM
CTG repeat expansion [20] = test: Binding affinity to (CTG)9 repeat DNA (unknown origin) assessed as increase in band intensity at 20 to 60 uM by circular dichroism analysis; details: dose 20-60 µM
CTG repeat expansion [21] = test: Binding affinity to dsDNA CTG/CTG motif (unknown origin) assessed as gibbs free energy change measured every 2 mins by ITC analysis
CTG repeat expansion [22] = test: Binding affinity to dsDNA CTG/CTG motif (unknown origin) assessed as dissociation constant measured every 2 mins by ITC analysis
CTG repeat expansion [23] = test: Binding affinity to dsDNA CTG/CTG motif (unknown origin) assessed as change in enthalpy measured every 2 mins by ITC analysis
CTG repeat expansion [24] = test: Binding affinity to dsDNA CTG/CTG motif (unknown origin) assessed as change in entropy measured every 2 mins by ITC analysis
CGG repeat expansion [25] = test: Binding affinity to dsDNA CGG/CGG triad (unknown origin) measured upto 50 mins by ITC analysis
CTG repeat expansion [26] = test: Binding affinity to dsDNA CTG/CTG triad (unknown origin) assessed as decrease in imino proton signals by NMR analysis

SMILES: Cc1ccc2ccc(NC(=O)OCCCNCCCOC(=O)Nc3ccc4ccc(C)nc4n3)nc2n1
Tm (CTG repeat expansion [1]): 27.9 °C
ΔTm (CTG repeat expansion [2]): 0.1 °C

SMILES: Cc1ccc2ccc(NC(=O)OCCCNCCCOC(=O)Nc3ccc4ccccc4n3)nc2n1
Tm (CTG repeat expansion [1]): 27.7 °C
ΔTm (CTG repeat expansion [2]): -0.1 °C

The remaining lines, values ahead:

Tm (CTG repeat expansion [1]): 28.1 °C
ΔTm (CTG repeat expansion [2]): 0.3 °C
SMILES: NCCCOC(=O)Nc1cc2ccccc2cn1

Tm (CTG repeat expansion [1]): 27.8 °C
ΔTm (CTG repeat expansion [2]): 0 °C
SMILES: Cc1ccc2ccc(NC(=O)OCCCNCCCOC(=O)Nc3ccccn3)nc2n1

Tm (CTG repeat expansion [1]): 28 °C
ΔTm (CTG repeat expansion [2]): 0.2 °C
SMILES: Cc1ccc2ccc(NC(=O)OCCCN)nc2n1

Tm (CTG repeat expansion [1]): 33.6 °C
ΔTm (CTG repeat expansion [2]): 5.8 °C
Tm (CAG repeat expansion [3]): 24.6 °C
Tm (CGG repeat expansion [4]): 32.1 °C
Tm (CCG repeat expansion [5]): 24.1 °C
Tm (CCG/CGG motif [6]): 44.8 °C
Tm (CAG/CTG motif [7]): 38.2 °C
Tm (TTT/ATA motif [8]): 20.1 °C
ΔTm (CAG repeat expansion [9]): 2.8 °C
ΔTm (CGG repeat expansion [10]): 3.9 °C
ΔTm (CCG repeat expansion [11]): 2.5 °C
ΔTm (CCG/CGG motif [12]): 0 °C
ΔTm (CAG/CTG motif [13]): -0.2 °C
ΔTm (TTT/ATA motif [14]): 3.5 °C
Activity (CTG repeat expansion [15]): Active
Activity (CAG repeat expansion [16]): inactive
Activity (CGG repeat expansion [17]): inactive
Activity (CCG repeat expansion [18]): inactive
Activity (CTG repeat expansion [19]): Dose-dependent-effect
Activity (CTG repeat expansion [20]): Active
deltaG (CTG repeat expansion [21]): -7.8 kcal/mol
Kd (CTG repeat expansion [22]): 1900 nM
deltaH (CTG repeat expansion [23]): -37.8 kcal/mol
-TdeltaS (CTG repeat expansion [24]): 29.2 kcal/mol
Activity (CGG repeat expansion [25]): Active
Activity (CTG repeat expansion [26]): Active
SMILES: Cc1ccc2ccc(NC(=O)OCCCNCCCOC(=O)Nc3cc4ccccc4cn3)nc2n1
